Measurements from DBAASP.
Values after ≈ are worked out from the molar mass of the structure shown. Values joined by “and” are separate entries in the source; they are usually repeats but may differ in a detail not shown here. Identical values can stand only once. Values belong to the compound of their own block, whether it stands above or below them.

How the values were obtained:
Assay in all cases: ≥ marks a high value that may be exact or a test limit, other limits are often not marked, values filed in µg/mL are converted to µM
[1] = tested on: Pseudomonas aeruginosa PAO1
Escherichia coli ML-35p = tested on: Escherichia coli ML-35p
Pseudomonas aeruginosa = tested on: Pseudomonas aeruginosa
[2] = tested on: Staphylococcus aureus ATCC 25923
Klebsiella aerogenes = tested on: Klebsiella aerogenes
[3] = tested on: Escherichia coli ATCC 25922
Staphylococcus aureus = tested on: Staphylococcus aureus
Escherichia coli = tested on: Escherichia coli
[4] = tested on: Pseudomonas aeruginosa ATCC 27853
Escherichia coli 1 = tested on: Escherichia coli 1
Enterobacter cloacae = tested on: Enterobacter cloacae
Micrococcus luteus = tested on: Micrococcus luteus
Shigella dysenteriae = tested on: Shigella dysenteriae
Salmonella typhimurium = tested on: Salmonella typhimurium
Candida albicans = tested on: Candida albicans
[5] = tested on: Staphylococcus epidermidis
Proteus mirabilis = tested on: Proteus mirabilis
Saccharomyces cerevisiae = tested on: Saccharomyces cerevisiae
Serratia marcescens = tested on: Serratia marcescens
Bacillus subtilis = tested on: Bacillus subtilis
Escherichia coli ML-35 = tested on: Escherichia coli ML-35
[6] = tested on: Salmonella enterica subsp. enterica serovar Typhimurium ATCC 14028
Bacillus megaterium = tested on: Bacillus megaterium
[7] = tested on: Corynebacterium glutamicum ATCC 13032
[8] = tested on: Staphylococcus aureus ATCC 9144
[9] = tested on: Salmonella enterica subsp. enterica serovar Pullorum C79-13
[10] = tested on: Enterococcus faecalis ATCC 29212
[11] = tested on: Salmonella enterica subsp. enterica serovar Typhimurium C77-31
[12] = tested on: Staphylococcus aureus ATCC 29213
[13] = tested on: Bacillus subtilis CMCC 63501
[14] = tested on: Staphylococcus epidermidis ATCC 12228
Escherichia coli 078 = tested on: Escherichia coli 078
Escherichia coli K88 = tested on: Escherichia coli K88
Escherichia coli K99 = tested on: Escherichia coli K99
Escherichia coli UB1005 = tested on: Escherichia coli UB1005
Escherichia coli HB101 = tested on: Escherichia coli HB101
[15] = tested on: Staphylococcus aureus ATCC 6538
[16] = tested on: Pseudomonas aeruginosa ATCC 9027
[17] = tested on: Escherichia coli ATCC 8739
[18] = tested on: Candida albicans ATCC 64550

- MIC [1]: 3.63 µM (≈ 7 µg/mL)
- MIC (Escherichia coli ML-35p): 2.6 µM (≈ 5 µg/mL)
- MIC (Pseudomonas aeruginosa): 3.63 µM (≈ 7 µg/mL)
- MIC [2]: 21.3 µM (≈ 41 µg/mL)
- MIC (Klebsiella aerogenes): 8.82 µM (≈ 17 µg/mL)
- MIC [3]: 6.75 µM (≈ 13 µg/mL)
- MIC (Staphylococcus aureus): 3.63 µM (≈ 7 µg/mL)
- MIC (Escherichia coli): 6.23 µM (≈ 12 µg/mL)
- MIC [4]: 4.15 µM (≈ 8 µg/mL)
- MIC (Escherichia coli 1): 2.6 µM (≈ 5 µg/mL)
- MIC (Enterobacter cloacae): 4.15 µM (≈ 8 µg/mL)
SMILES: CC(C)C[C@H](NC(=O)[C@H](CCCCN)NC(=O)[C@H](CCCCN)NC(=O)[C@H](Cc1ccccc1)NC(=O)[C@H](Cc1ccccc1)NC(=O)[C@H](CCCCN)NC(=O)[C@H](CCCCN)NC(=O)[C@@H](N)Cc1ccccc1)C(=O)N[C@@H](CCCCN)C(=O)N[C@@H](CC(N)=O)C(=O)N[C@@H](CO)C(=O)N[C@H](C(=O)N[C@@H](CCCCN)C(=O)N[C@@H](CCCCN)C(=O)N[C@@H](CCCN=C(N)N)C(=O)O)C(C)C [FKKFFKKLKNSVKKR]

- MIC (Micrococcus luteus): 2.07 µM (≈ 5 µg/mL)
- MIC (Shigella dysenteriae): 20.7 µM (≈ 50 µg/mL)
- MIC (Salmonella typhimurium): ≥ 41.4 µM
- MIC (Candida albicans): > 41.4 µM
- MIC [5]: 31.1 µM (≈ 75 µg/mL)
- MIC (Pseudomonas aeruginosa): 20.7 µM (≈ 50 µg/mL)
- MIC (Proteus mirabilis): 20.7 µM (≈ 50 µg/mL)
- MIC (Saccharomyces cerevisiae): 20.7 µM (≈ 50 µg/mL)
- MIC (Serratia marcescens): ≥ 41.4 µM
- MIC (Bacillus subtilis): ≥ 41.4 µM
- MIC (Escherichia coli): 20.7 µM (≈ 50 µg/mL)
SMILES: CC[C@H](C)[C@H](NC(=O)CN)C(=O)N[C@@H](CC(C)C)C(=O)N[C@@H](CC(=O)O)C(=O)N[C@H](C(=O)N[C@@H](CC(C)C)C(=O)N[C@@H](CCCCN)C(=O)N[C@@H](CCC(N)=O)C(=O)N[C@@H](Cc1ccccc1)C(=O)N[C@@H](C)C(=O)N[C@@H](CCCCN)C(=O)NCC(=O)N[C@H](C(=O)NCC(=O)N[C@@H](CCCCN)C(=O)N[C@@H](CC(=O)O)C(=O)N[C@@H](CC(C)C)C(=O)N[C@H](C(=O)N[C@@H](CCCCN)C(=O)NCC(=O)N[C@@H](C)C(=O)N[C@@H](C)C(=O)N[C@@H](CCC(N)=O)C(=O)NCC(=O)O)C(C)C)C(C)C)[C@@H](C)O [GILDTLKQFAKGVGKDLVKGAAQG]

- MIC (Escherichia coli ML-35): 4 µM (≈ 9.91 µg/mL)
- MIC [6]: 16 µM (≈ 39.6 µg/mL)
- MIC (Bacillus megaterium): 8 µM (≈ 19.8 µg/mL)
- MIC [2]: 8 µM (≈ 19.8 µg/mL)
- MIC [3]: 4 µM (≈ 9.91 µg/mL)
- MIC [4]: 1 µM (≈ 2.48 µg/mL)
SMILES: CC[C@H](C)[C@H](NC(=O)[C@H](CCCCN)NC(=O)[C@H](CCCCN)NC(=O)[C@H](CC(C)C)NC(=O)[C@H](CCCCN)NC(=O)[C@H](CCC(=O)O)NC(=O)[C@H](CCCCN)NC(=O)[C@@H](NC(=O)[C@H](CCCCN)NC(=O)[C@H](CC(N)=O)NC(=O)[C@H](CCCN=C(N)N)NC(=O)[C@H](C)NC(=O)[C@H](CCCCN)NC(=O)[C@H](CCCN=C(N)N)NC(=O)[C@H](CC(C)C)NC(=O)[C@H](CCCN=C(N)N)NC(=O)[C@H](CCCCN)NC(=O)[C@H](CCCN=C(N)N)NC(=O)[C@H](CC(C)C)NC(=O)CN)[C@@H](C)CC)C(=O)O [GLRKRLRKARNKIKEKLKKI]

- MIC [7]: 0.8 µM (≈ 1.55 µg/mL)
- MIC [3]: 3.1 µM (≈ 6.01 µg/mL)
- MIC [4]: 3.1 µM (≈ 6.01 µg/mL)
- MIC [8]: 12.5 µM (≈ 24.3 µg/mL)
SMILES: CC(C)[C@H](NC(=O)[C@H](CCCCN)NC(=O)[C@H](C)NC(=O)[C@@H](NC(=O)[C@@H](NC(=O)[C@H](CCCN=C(N)N)NC(=O)[C@H](CCCN=C(N)N)NC(=O)[C@H](Cc1c[nH]c2ccccc12)NC(=O)[C@H](Cc1c[nH]c2ccccc12)NC(=O)CN)[C@@H](C)O)C(C)C)C(=O)N[C@@H](CCCN=C(N)N)C(=O)N[C@@H](CC(N)=O)C(=O)N[C@@H](C)C(=O)NCC(=O)N[C@@H](CCCN=C(N)N)C(=O)N[C@@H](CCCCN)C(N)=O [GWWRRTVAKVRNAGRK]

- MIC [9]: ≥ 128 µM
- MIC [10]: > 128 µM
- MIC [11]: ≥ 128 µM
- MIC [3]: 16 µM (≈ 21.5 µg/mL)
- MIC [12]: > 128 µM
- MIC [13]: 16 µM (≈ 21.5 µg/mL)
- MIC [14]: > 128 µM
- MIC [4]: > 128 µM
SMILES: NC(=O)[C@@H]1CCCN1C(=O)[C@H](CCCN=C(N)N)NC(=O)[C@H](CS)NC(=O)[C@H](Cc1ccccc1)NC(=O)[C@H](CCCN=C(N)N)NC(=O)[C@H](CCCN=C(N)N)NC(=O)[C@H](CCCN=C(N)N)NC(=O)[C@H](CS)NC(=O)[C@H](CCCN=C(N)N)NC(=O)[C@@H]1CCCN1 [PRCRRRFCRP]

- MIC [6]: 32 µM (≈ 52.1 µg/mL)
- MIC [9]: 2 µM (≈ 3.25 µg/mL)
- MIC [10]: 32 µM (≈ 52.1 µg/mL)
- MIC (Escherichia coli 078): 8 µM (≈ 13 µg/mL)
- MIC [2]: 32 µM (≈ 52.1 µg/mL)
- MIC [11]: ≥ 32 µM
- MIC [3]: 8 µM (≈ 13 µg/mL)
- MIC (Escherichia coli K88): 2 µM (≈ 3.25 µg/mL)
- MIC [12]: 32 µM (≈ 52.1 µg/mL)
- MIC [13]: 8 µM (≈ 13 µg/mL)
- MIC (Escherichia coli K99): 4 µM (≈ 6.51 µg/mL)
- MIC [14]: 64 µM (≈ 104 µg/mL)
- MIC (Escherichia coli UB1005): 8 µM (≈ 13 µg/mL)
SMILES: CC[C@H](C)[C@H](NC(=O)[C@H](Cc1c[nH]c2ccccc12)NC(=O)[C@H](CCCCN)NC(=O)[C@H](Cc1c[nH]c2ccccc12)NC(=O)[C@@H](NC(=O)[C@H](CCCCN)NC(=O)CNC(=O)[C@@H](NC(=O)[C@H](CCCCN)NC(=O)[C@H](CCCCN)NC(=O)[C@H](Cc1c[nH]c2ccccc12)NC(=O)[C@@H](N)CCCN=C(N)N)[C@@H](C)CC)C(C)C)C(N)=O [RWKKIGKVWKWI]

- MIC (Escherichia coli HB101): ≥ 100 µM
- MIC [7]: ≥ 100 µM
- MIC [3]: > 100 µM
- MIC [4]: > 100 µM
- MIC [8]: ≥ 100 µM
SMILES: NC(N)=NCCC[C@H](NC(=O)[C@@H](N)CO)C(=O)N[C@@H](Cc1c[nH]c2ccccc12)C(=O)N1CCC[C@H]1C(=O)N[C@@H](CO)C(=O)N1CCC[C@H]1C(=O)NCC(=O)N[C@@H](CCCN=C(N)N)C(=O)N1CCC[C@H]1C(=O)N[C@@H](CCCN=C(N)N)C(=O)N1CCC[C@H]1C(=O)N[C@@H](Cc1ccccc1)C(=O)N1CCC[C@H]1C(=O)NCC(=O)O [SRWPSPGRPRPFPG]

- MIC [15]: 1.7 µM (≈ 3.09 µg/mL)
- MIC [16]: 4.6 µM (≈ 8.36 µg/mL)
- MIC [17]: 3.1 µM (≈ 5.64 µg/mL)
- MIC [18]: ≥ 100 µM
SMILES: NCCCC[C@H](NC(=O)[C@H](Cc1c[nH]c2ccccc12)NC(=O)[C@H](Cc1ccccc1)NC(=O)[C@@H](N)Cc1c[nH]c2ccccc12)C(=O)N[C@@H](Cc1c[nH]c2ccccc12)C(=O)N[C@@H](Cc1c[nH]c2ccccc12)C(=O)N[C@@H](CCCN=C(N)N)C(=O)N[C@@H](CCCN=C(N)N)C(=O)N[C@@H](CCCN=C(N)N)C(=O)N[C@@H](CCCN=C(N)N)C(=O)N[C@@H](CCCN=C(N)N)C(N)=O [WFWKWWRRRRR]

- MIC [2]: 3.48 µM (≈ 5 µg/mL)
- MIC [3]: 6.97 µM and 5.22 µM
- MIC [18]: ≥ 100 µM
- MIC [4]: 3.48 µM (≈ 5 µg/mL)
SMILES: C[C@H](NC(=O)[C@H](Cc1c[nH]c2ccccc12)NC(=O)[C@H](CCCN=C(N)N)NC(=O)[C@@H](N)Cc1ccc(O)cc1)C(=O)N[C@@H](CCCN=C(N)N)C(=O)N[C@@H](Cc1c[nH]c2ccccc12)C(=O)N[C@@H](Cc1c[nH]c2ccccc12)C(=O)N[C@@H](CCCN=C(N)N)C(=O)N[C@@H](CCCN=C(N)N)C(N)=O [YRWARWWRR]
